Source: ChEMBL document CHEMBL1137672, “Synthesis and pharmacological evaluation of 2-substituted benzo[b]thiophenes as anti-inflammatory and analgesic agents” (Eur J Med Chem, 2009)

Experiments:
Rattus norvegicus [1] = test: Antiinflammatory against carrageenan-induced paw edema in Sprague-Dawley rat assessed as remaining paw edema at 25 mg/kg, sc administered 30 mins before carrageenan challenge measured after 1 hr by plethysmometer relative to control; format: functional; conditions: route subcutaneous
Rattus norvegicus [2] = test: Antiinflammatory against carrageenan-induced paw edema in Sprague-Dawley rat assessed as remaining paw edema at 25 mg/kg, sc administered 30 mins before carrageenan challenge measured after 2 hrs by plethysmometer relative to control; format: functional; conditions: route subcutaneous
Rattus norvegicus [3] = test: Antiinflammatory against carrageenan-induced paw edema in Sprague-Dawley rat assessed as remaining paw edema at 25 mg/kg, sc administered 30 mins before carrageenan challenge measured after 3 hrs by plethysmometer relative to control; format: functional; conditions: route subcutaneous
Rattus norvegicus [4] = test: Antiinflammatory against carrageenan-induced paw edema in Sprague-Dawley rat assessed as remaining paw edema at 25 mg/kg, sc administered 30 mins before carrageenan challenge measured after 4 hrs by plethysmometer relative to control; format: functional; conditions: route subcutaneous
Rattus norvegicus [5] = test: Antiinflammatory against carrageenan-induced paw edema in Sprague-Dawley rat assessed as remaining paw edema at 50 mg/kg, sc administered 30 mins before carrageenan challenge measured after 1 hr by plethysmometer relative to control; format: functional; conditions: route subcutaneous
Rattus norvegicus [6] = test: Antiinflammatory against carrageenan-induced paw edema in Sprague-Dawley rat assessed as remaining paw edema at 50 mg/kg, sc administered 30 mins before carrageenan challenge measured after 2 hrs by plethysmometer relative to control; format: functional; conditions: route subcutaneous
Rattus norvegicus [7] = test: Antiinflammatory against carrageenan-induced paw edema in Sprague-Dawley rat assessed as remaining paw edema at 50 mg/kg, sc administered 30 mins before carrageenan challenge measured after 3 hrs by plethysmometer relative to control; format: functional; conditions: route subcutaneous
Rattus norvegicus [8] = test: Antiinflammatory against carrageenan-induced paw edema in Sprague-Dawley rat assessed as remaining paw edema at 50 mg/kg, sc administered 30 mins before carrageenan challenge measured after 4 hrs by plethysmometer relative to control; format: functional; conditions: route subcutaneous
Rattus norvegicus [9] = test: Analgesic activity in Sprague-Dawley rat assessed as change in latency time required to elicit jumping or hind paw licking at 25 mg/kg, sc administered 1 hr prior testing measured after 1 hr of post dose by hot plate method relative to basal level; format: functional; conditions: route subcutaneous
Rattus norvegicus [10] = test: Analgesic activity in Sprague-Dawley rat assessed as change in latency time required to elicit jumping or hind paw licking at 25 mg/kg, sc administered 1 hr prior testing measured after 2 hrs of post dose by hot plate method relative to basal level; format: functional; conditions: route subcutaneous
Mus musculus [11] = test: Analgesic activity in Swiss albino mouse assessed as inhibition of acetic acid-induced abdominal constriction at 25 mg/kg, sc administered 30 mins prior to acetic acid challenge measured for 30 mins relative to control; format: functional; conditions: Abdomen, route subcutaneous
Rattus norvegicus [12] = test: Gastrointestinal toxicity in Sprague-Dawley rat assessed as gastric mucosal lesion at 50 mg/kg, po daily for 1 week; format: organism-based, Gastric mucosa; design: dose 50 mg/kg, route oral; conditions: in vivo, 168 h
Rattus norvegicus [13] = test: Hepatotoxicity in Sprague-Dawley rat assessed as serum alanine aminotransferase level at 50 mg/kg, po daily for 1 week by Reitman-Frankel colorimetric procedure; format: toxicity, organism-based; design: dose 50 mg/kg, route oral; conditions: in vivo, 168 h
Rattus norvegicus [14] = test: Hepatotoxicity in Sprague-Dawley rat assessed as serum aspartate aminotransferase level at 50 mg/kg, po daily for 1 week by Reitman-Frankel colorimetric procedure; format: toxicity, organism-based; design: dose 50 mg/kg, route oral; conditions: in vivo, 168 h
Rattus norvegicus [15] = test: Analgesic activity in Sprague-Dawley rat assessed as latency time required to elicit jumping or hind paw licking at 25 mg/kg, sc administered 1 hr prior testing measured after 2 hrs of post dose by hot plate method; format: functional; conditions: route subcutaneous
Rattus norvegicus [16] = test: Antiinflammatory against carrageenan-induced paw edema in Sprague-Dawley rat assessed as remaining paw edema at 10 mg/kg, sc administered 30 mins before carrageenan challenge measured after 2 hrs by plethysmometer relative to control; format: functional; conditions: route subcutaneous
Rattus norvegicus [17] = test: Antiinflammatory against carrageenan-induced paw edema in Sprague-Dawley rat assessed as remaining paw edema at 10 mg/kg, sc administered 30 mins before carrageenan challenge measured after 3 hrs by plethysmometer relative to control; format: functional; conditions: route subcutaneous
Rattus norvegicus [18] = test: Antiinflammatory against carrageenan-induced paw edema in Sprague-Dawley rat assessed as remaining paw edema at 10 mg/kg, sc administered 30 mins before carrageenan challenge measured after 1 hr by plethysmometer relative to control; format: functional; conditions: route subcutaneous
Rattus norvegicus [19] = test: Antiinflammatory against carrageenan-induced paw edema in Sprague-Dawley rat assessed as remaining paw edema at 10 mg/kg, sc administered 30 mins before carrageenan challenge measured after 4 hrs by plethysmometer relative to control; format: functional; conditions: route subcutaneous
Rattus norvegicus [20] = test: Analgesic activity in Sprague-Dawley rat assessed as change in latency time required to elicit jumping or hind paw licking at 10 mg/kg, sc administered 1 hr prior testing measured after 1 hr of post dose by hot plate method relative to basal level; format: functional; conditions: route subcutaneous
Rattus norvegicus [21] = test: Analgesic activity in Sprague-Dawley rat assessed as change in latency time required to elicit jumping or hind paw licking at 10 mg/kg, sc administered 1 hr prior testing measured after 2 hrs of post dose by hot plate method relative to basal level; format: functional; conditions: route subcutaneous
Mus musculus [22] = test: Analgesic activity in Swiss albino mouse assessed as inhibition of acetic acid-induced abdominal constriction at 10 mg/kg, sc administered 30 mins prior to acetic acid challenge measured for 30 mins relative to control; format: functional; conditions: Abdomen, route subcutaneous

Row | SMILES | Activity (Rattus norvegicus [1]) | Activity (Rattus norvegicus [2]) | Activity (Rattus norvegicus [3]) | Activity (Rattus norvegicus [4]) | Activity (Rattus norvegicus [5]) | Activity (Rattus norvegicus [6]) | Activity (Rattus norvegicus [7]) | Activity (Rattus norvegicus [8]) | Activity (Rattus norvegicus [9]) | Activity (Rattus norvegicus [10]) | inhibition in vivo at 25 mg/kg (Mus musculus [11]) | Activity (Rattus norvegicus [12]) | Activity (Rattus norvegicus [13]) | Activity (Rattus norvegicus [14]) | Activity (Rattus norvegicus [15]) | also measured
1 | NNC(=O)Nc1cc2cc([N+](=O)[O-])ccc2s1 | 59.7% | 71.2% | 79% | 80% | 45.9% | 45.9% | 54.3% | 56.4% | 19.4% | 7.5% | -43.4% | Non-toxic | Non-toxic | Non-toxic | – | –
2 | NNC(=O)c1cc2cc([N+](=O)[O-])ccc2s1 | 49.4% | 51.9% | 55.9% | 55.9% | 38.2% | 42.2% | 46.3% | 51.3% | 24.7% | 31.6% | -88.2% | Non-toxic | Non-toxic | Non-toxic | – | –
3 | O=C(N/N=C/c1c[nH]c2ccccc12)c1cc2cc([N+](=O)[O-])ccc2s1 | 63.2% | 89.1% | 90.1% | 90% | 36.9% | 46.5% | 46.6% | 49.6% | 16.6% | – | 16.9% | Non-toxic | Non-toxic | Non-toxic | 14.72 s | –
4 | Cc1ccc(/C=N/NC(=O)c2cc3cc([N+](=O)[O-])ccc3s2)o1 | 55.9% | 77.2% | 92.2% | 92% | 37.5% | 41.6% | 41.3% | 40.7% | 19.8% | 22.39% | -43.1% | Non-toxic | Non-toxic | Non-toxic | – | –
5 | O=C(NNC(=S)Nc1ccccc1)c1cc2cc([N+](=O)[O-])ccc2s1 | 40% | 48.1% | 54.6% | 58.7% | 35.7% | 42.7% | 45.3% | 46.2% | 36.5% | – | -63.4% | Non-toxic | Non-toxic | Non-toxic | 16.66 s | –
6 | CN1C(C(=O)Nc2ccccn2)=C(O)c2ccccc2S1(=O)=O [PIROXICAM] | – | – | – | – | – | – | – | – | – | – | – | – | – | – | – | Activity (Rattus norvegicus [16]): 42.9%; Activity (Rattus norvegicus [17]): 51.4%; Activity (Rattus norvegicus [18]): 35.9%; Activity (Rattus norvegicus [19]): 51.4%; Activity (Rattus norvegicus [20]): 21.4%; Activity (Rattus norvegicus [21]): 8.3%; inhibition in vivo at 10 mg/kg (Mus musculus [22]): -56.9%
